Columns and labels:
Assay type in all cases: cell-based
[1] = system: NCI-H929 (Multiple myeloma cells); assay: Cell viability (ATPLite) in NCI-H929; conditions: Homo sapiens, 96 hours
Method: Cells were removed from liquid nitrogen storage, thawed and expanded in appropriate growth media. Once expanded, cells were seeded in 384-well tissue culture treated plates at 500 cells per well. After 24 hours, cells were treated for either 0 hours or treated for 96 hours with a testing compound (at the concentrations of 100 nM and 2 uM). At the end of either 0 hours or 96 hours, cell status was analyzed using ATPLite (Perkin Elmer) to assess the biological response of cells to the testing compound.

[2] = system: XBP1(u)-luciferase splicing reporter in HepG2 hepatoma cells; assay: HepG2 XBP1 reporter assay (XBP1(u)-Luc); conditions: Homo sapiens; for IC50: 6 h, six hours after addition of compound; for EC50: 6 hours after compound addition, Table 3, read-out: XBP1-luc HepG2 1 EC50
[3] = system: β-catenin-TCF-mediated reporter transcription activity in Colo 205 cells; assay: Colo 205 reporter assay (TCF/LEF promoter-driven firefly luciferase); conditions: Homo sapiens; Colo 205 TCF/LEF luciferase reporter, 5 hours after compound addition, 384 well; read-out: Colo205 IC50

IC50 [1] | IC50 [2] | IC50 [3] | EC50 [2] | SMILES
≥ 25000 nM | 600 to 2000 nM |  |  | Cc1cc(N2CCCOC[C@@H]2c2ccc(OCS(C)(=O)=O)cc2Cl)nc(N)n1 [D-1]
< 1000 nM | < 600 nM |  |  | Cc1cc(N2CCCOC[C@H]2c2ccc(OCS(C)(=O)=O)cc2Cl)nc(N)n1 [D-2]
≥ 25000 nM | 600 to 2000 nM |  |  | Cc1cc(N2CCCOC[C@@H]2c2ccc(S(=O)(=O)C3CCC3)cc2Cl)nc(N)n1 [D-3]
≥ 25000 nM | < 600 nM |  |  | COc1cc(F)c(F)cc1[C@H]1COCCCN1c1cc(C)nc(N)n1 [D-4]
1000 to 10000 nM | 600 to 2000 nM |  |  | COc1cc(F)c(F)cc1[C@@H]1COCCCN1c1cc(C)nc(N)n1 [D-5]
1000 to 10000 nM | 600 to 2000 nM |  |  | Cc1cc(N2CCCOC[C@@H]2c2ccc(NC(=O)CCO)cc2Cl)nc(N)n1 [D-6]
< 1000 nM | 600 to 2000 nM |  |  | Cc1cc(N2CCCOC[C@H]2c2ccc(NC(=O)CCO)cc2Cl)nc(N)n1 [D-7]
≥ 25000 nM | 600 to 2000 nM |  |  | Cc1cc(N2CCCOC[C@@H]2c2ccc(NC(=O)C(F)F)cc2Cl)nc(N)n1 [D-8]
< 1000 nM | < 600 nM |  |  | Cc1cc(N2CCCOC[C@@H]2c2cc3c(cc2Cl)NCCC3)nc(N)n1 [D-9]
< 1000 nM | < 600 nM |  |  | Cc1cc(N2CCCOC[C@@H]2c2cc(N)c(C(F)(F)F)cc2Cl)nc(N)n1 [D-10]
10000 to 25000 nM | 2000 to 5000 nM |  |  | Cc1cc(N2CCCOCC2c2cc(OC(F)F)c(Cl)cc2Cl)nc(N)n1 [D-11]
1000 to 10000 nM | 600 to 2000 nM |  |  | CCC(=O)Nc1cc(Cl)c(C2COCCCN2c2cc(C)nc(N)n2)cc1C [D-12]
≥ 25000 nM | 600 to 2000 nM |  |  | Cc1cc(N2CCCOCC2c2cc(C)c(N3CCC(C)(O)CC3)cc2Cl)nc(N)n1 [D-13]
< 1000 nM | < 600 nM |  |  | Cc1cc(N2CCCOC[C@@H]2c2cc3c(cc2Cl)N(C)CC3)nc(N)n1 [D-14]
1000 to 10000 nM | 600 to 2000 nM |  |  | COc1cc(C2COCCCN2c2cc(C)nc(N)n2)c(Cl)cc1N1CCCC1 [D-17]
1000 to 10000 nM | 600 to 2000 nM |  |  | COc1cc(C2COCCCN2c2cc(C)nc(N)n2)c(Cl)cc1OCCCC#N [D-18]
1000 to 10000 nM | 600 to 2000 nM |  |  | COc1cc(C2COCCCN2c2cc(C)nc(N)n2)c(Cl)cc1N1CCOCC1 [D-19]
< 1000 nM | < 600 nM |  |  | Cc1cc(N2CCCOC[C@@H]2c2cc(O)c(C)cc2Cl)nc(N)n1 [D-20]
1000 to 10000 nM | < 600 nM |  |  | CCOc1cc(C2COCCCN2c2cc(C)nc(N)n2)c(Cl)cc1O [D-21]
< 1000 nM | < 600 nM |  |  | Cc1cc(N2CCCOC[C@@H]2c2ccc(CS(C)(=O)=O)cc2OC(F)F)nc(N)n1 [D-22]
≥ 25000 nM | < 600 nM |  |  | Cc1cc(N2CCCOCC2c2cc(O)c(C(=O)O)cc2Cl)nc(N)n1 [D-23]
≥ 25000 nM | < 600 nM |  |  | COc1cc(C2COCCCN2c2cc(C)nc(N)n2)c(Cl)cc1OCC(=O)N1CCCCC1 [D-24]

IC50 [1] | IC50 [2] | IC50 [3] | EC50 [2] | SMILES
≥ 25000 nM | < 600 nM |  |  | CNc1cc(Cl)c([C@@H]2COCCCN2c2cc(C)nc(N)n2)cc1C [D-25]
< 1000 nM | < 600 nM |  |  | CNc1cc(Cl)c([C@H]2COCCCN2c2cc(C)nc(N)n2)cc1C [D-26]
10000 to 25000 nM | < 600 nM |  |  | Cc1cc(N2CCCOC[C@H]2c2cc3c(cc2Cl)CCN3C)nc(N)n1 [D-27]
< 1000 nM | < 600 nM |  |  | Cc1cc(N2CCCOC[C@@H]2c2cc3c(cc2Cl)CCN3C)nc(N)n1 [D-28]
≥ 25000 nM | < 600 nM |  |  | Cc1cc(N2CCCOC[C@H]2c2ccc(N)cc2Cl)nc(N)n1 [D-29]
< 1000 nM | < 600 nM |  |  | Cc1cc(N2CCCOC[C@@H]2c2ccc(N)cc2Cl)nc(N)n1 [D-30]
< 1000 nM | < 600 nM |  |  | Cc1cc(N2CCCOC[C@@H]2c2cc3c(cc2Cl)OCC(C)(C)CO3)nc(N)n1 [D-31]
≥ 25000 nM | 2000 to 5000 nM |  |  | Cc1cc(N2CCCOCC2c2ccc(CS(C)(=O)=O)nc2F)nc(N)n1 [D-33]
< 1000 nM | < 600 nM |  |  | CCOc1cc([C@H]2COCCCN2c2cc(C)nc(N)n2)c(Cl)cc1OC [D-34]
10000 to 25000 nM | 2000 to 5000 nM |  |  | CCOC(=O)Cc1cc(C2COCCCN2c2cc(C)nc(C)n2)c(Cl)cc1C#N [D-35]
< 1000 nM | < 600 nM |  |  | CCOC(=O)[C@]1(C)CNc2cc(Cl)c([C@H]3COCCCN3c3cc(C)nc(N)n3)cc2O1 [D-36]
≥ 25000 nM | 600 to 2000 nM |  |  | CCOC(=O)[C@@]1(C)CNc2cc(Cl)c([C@H]3COCCCN3c3cc(C)nc(N)n3)cc2O1 [D-37]
< 1000 nM | < 600 nM |  |  | COc1cc([C@H]2COCCCN2c2cc(C)nc(N)n2)c(Cl)cc1OCC#N [D-38]
1000 to 10000 nM | 600 to 2000 nM |  |  | COc1cc(N2CCCOCC2c2cc(C)nc(N)n2)c(Cl)cc1OCC(=O)Nc1ccccc1 [D-39]
< 1000 nM | < 600 nM |  |  | Cc1cc(N2CCCOCC2c2ncc(CS(C)(=O)=O)cc2Cl)nc(N)n1 [D-40]
< 1000 nM | < 600 nM |  |  | Cc1cc(N2CCCOC[C@@H]2c2ccc(CS(C)(=O)=O)cc2OC(F)(F)F)nc(N)n1 [D-41]
1000 to 10000 nM | 600 to 2000 nM |  |  | CCOC(=O)OCc1cc(Cl)c(C2COCCCN2c2cc(C)nc(N)n2)cc1OCC [D-42]
1000 to 10000 nM | 600 to 2000 nM |  |  | Cc1cc(N2CCCOCC2c2ncc(CS(C)(=O)=O)cc2F)nc(N)n1 [D-43]
< 1000 nM | < 600 nM |  |  | Cc1cc(N2CCCOC[C@@H]2c2cc(N)c(OC(F)(F)F)cc2Cl)nc(N)n1 [D-45]
< 1000 nM | < 600 nM |  |  | Cc1cc(N2CCCOCC2c2cc(CN)c(C)cc2Cl)nc(N)n1 [D-46]
< 1000 nM | < 600 nM |  |  | Cc1cc(N2CCCOCC2c2cnc(CS(C)(=O)=O)cc2Cl)nc(N)n1 [D-49]
< 1000 nM | < 600 nM |  |  | Cc1cc(N2CCCOCC2c2cc(O)c(OC(F)F)cc2Cl)nc(N)n1 [D-50]

IC50 [1] | IC50 [2] | IC50 [3] | EC50 [2] | SMILES
< 1000 nM | < 600 nM |  |  | COc1ccc(C2COCCCN2c2cc(C)nc(N)n2)c(Cl)c1 [D-51]
< 1000 nM | < 600 nM |  |  | CCc1cc(N2CCCOCC2c2ccc(CS(C)(=O)=O)cc2Cl)nc(N)n1 [D-52]
1000 to 10000 nM | < 600 nM |  |  | Cc1cc(N2CCCOCC2c2ccc(CS(C)(=O)=O)nc2OC(F)F)nc(N)n1 [D-54]
< 1000 nM | < 600 nM |  |  | Cc1cc(N2CCCOCC2c2ccc(CS(C)(=O)=O)cc2Cl)nc(N)n1 [D-55]
10000 to 25000 nM | ≥ 5000 nM |  |  | Cc1cc(N2CCCOC[C@H]2c2cc(O)c(OC(F)F)cc2Cl)nc(N)n1 [D-56]
< 1000 nM | < 600 nM |  |  | Cc1cc(N2CCCOC[C@@H]2c2cc(O)c(OC(F)F)cc2Cl)nc(N)n1 [D-57]
< 1000 nM | < 600 nM |  |  | Cc1cc(N2CCCOC[C@H]2c2ccc(NC(=O)C3(F)CCOC3)cc2Cl)nc(N)n1 (stereo partly drawn) [D-58]
< 1000 nM | < 600 nM |  |  | CCc1cc(N2CCCOC[C@@H]2c2ccc(CS(C)(=O)=O)cc2Cl)nc(N)n1 [D-59]
1000 to 10000 nM | < 600 nM |  |  | C#CCOc1cc(Cl)c(C2COCCCN2c2cc(C)nc(N)n2)cc1OC [D-60]
1000 to 10000 nM | < 600 nM |  |  | Cc1cc(N2CCCOCC2c2ccc(C3CCNCC3)cc2Cl)nc(N)n1 [D-61]
 |  | < 300 nM | < 600 nM | Cc1cc(N2CCCOC[C@@H]2c2ccc(N3CC4(CCO4)C3)cc2Cl)nc(N)n1 [I-260, 4-[(3S)-3-[2-chloro-4-(1-oxa-6-azaspiro[3.3]heptan-6-yl)phenyl]-1,4-oxazepan-4-yl]-6-methyl-pyrimidin-2-amine]
 |  | < 300 nM | < 600 nM | Cc1cc(N2CCCOC[C@@H]2c2ccc(N3CC(C)(O)C3)cc2Cl)nc(N)n1 [I-261, (S)-1-(4-(4-(2-amino-6-methylpyrimidin-4-yl)-1,4-oxazepan-3-yl)-3-chlorophenyl)-3-methylazetidin-3-ol]
 |  | < 300 nM | < 600 nM | CC(=O)N1CC(Nc2ccc([C@H]3COCCCN3c3cc(C)nc(N)n3)c(Cl)c2)C1 [I-262, (S)-1-(3-((4-(4-(2-amino-6-methylpyrimidin-4-yl)-1,4-oxazepan-3-yl)-3-chlorophenyl)amino)azetidin-1-yl)ethan-1-one]
 |  | < 300 nM | < 600 nM | Cc1cc(N2CCCOC[C@@H]2c2ccc(NCC3(O)CCC3)cc2Cl)nc(N)n1 [I-263, 1-[[4-[(3S)-4-(2-amino-6-methyl-pyrimidin-4-yl)-1,4-oxazepan-3-yl]-3-chloro-anilino]methyl]-cyclobutanol]
 |  | < 300 nM | < 600 nM | Cc1cc(N2CCCOC[C@@H]2c2ccc(NC3(C)COC3)cc2Cl)nc(N)n1 [I-266, 4-[(3S)-3-[2-chloro-4-[(3-methyloxetan-3-yl)amino]phenyl]-1,4-oxazepan-4-yl]-6-methyl-pyrimidin-2-amine]
 |  | 300 to 1000 nM | < 600 nM | Cc1cc(N2CCCOC[C@@H]2c2ccc(N3CCN(C)CC3)cc2Cl)nc(N)n1 [I-275, (S)-4-[3-[2-chloro-4-(4-methylpiperazin-1-yl)phenyl]-1,4-oxazepan-4-yl]-6-methyl-pyrimidin-2-amine]
 |  | 300 to 1000 nM | 2000 to 5000 nM | COc1ccc(F)cc1[C@@H]1CCCCCN1c1cc(C)nc(N)n1 [I-285]
 |  | 300 to 1000 nM | ≥ 5000 nM | COc1c(F)cccc1C1CCCCCN1c1cc(C)nc(N)n1 (stereo not shown) [I-287]
 |  | < 300 nM | < 600 nM | Cc1cc(N2CCCOCC2c2ccc(NC3COC3)cc2Cl)nc(N)n1 (stereo not shown) [I-302]
 |  | < 300 nM | < 600 nM | COCC(OC)c1ccc(C2COCCCN2c2cc(C)nc(N)n2)c(Cl)c1 (stereo not shown) [I-307]
 |  | < 300 nM | < 600 nM | Cc1cc(N2CCCOCC2c2ccc(NC(=O)C(C)(C)O)cc2Cl)nc(N)n1 (stereo not shown) [I-308]
